According to patent US20250163488A1, “CONJUGATION METHOD INVOLVING A TRANSGLUTAMINASE AT THE FC REGION COMPRISING A TRIMMED N-GLYCAN” (ADC THERAPEUTICS SA, priority 2022, published 2025):

Molecular target: T1, MTGase (Streptomyces mobaraensis, UniProt P81453)
T1 sequence (P81453 77-407): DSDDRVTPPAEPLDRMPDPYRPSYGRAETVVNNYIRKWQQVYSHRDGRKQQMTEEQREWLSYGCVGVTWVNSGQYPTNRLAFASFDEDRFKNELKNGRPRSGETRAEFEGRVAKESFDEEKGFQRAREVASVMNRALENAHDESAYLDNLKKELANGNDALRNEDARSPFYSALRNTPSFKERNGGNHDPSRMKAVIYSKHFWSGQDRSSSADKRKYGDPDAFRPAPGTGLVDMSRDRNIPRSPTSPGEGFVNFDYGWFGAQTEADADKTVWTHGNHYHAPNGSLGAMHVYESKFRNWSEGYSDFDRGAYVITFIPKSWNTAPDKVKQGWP
Experiment: MTGase mediated conjugation of linkers to deglycosylated/trimmed antibody X, efficiency by LC-MS
Format: biochemical
Parameters: Efficiency of MTGase mediated conjugation, PNGase F Process: tested at 200 eq
Conditions: linker 200 eq., 37° C., 18 h; for Efficiency of MTGase mediated conjugation, EndoS Process: antibody X glycan trimmed with EndoS; for Efficiency of MTGase mediated conjugation, PNGase F Process: antibody X deglycosylated with PNGase F
Protocol: Antibody X (2.5 mg) was degylcosylated using PNGase F (379 KU) at an antibody concentration of 1.33 mg/mL, the digest was incubated at 37° C. for 18 h. Deglycosylated antibody X was purified by protein A chromatography followed by buffer exchange into PBS and concentration by UF/DF.
Antibody X (2.5 mg) glycans were trimmed using EndoS (12.5 μg) at an antibody concentration of 1.0 mg/mL, the digest was incubated at 37° C. for 18 h. Trimmed antibody X was purified by protein A chromatography followed by buffer exchange into PBS and concentration by UF/DF.
Solutions of linkers 1-4, 7, 8 & 11 (Table 1) were prepared in PBS. Degylcosylated/trimmed antibody X samples (0.1 mg, 2 mg/mL) were next functionalized with linkers 1-4, 7, 8 & 11 (200 eq.) via MTGase mediated conjugation using 6.7 U of enzyme per mg of antibody. The resulting reactions were incubated at 37° C. for 18 h. Functionalized antibody X samples were purified by protein A chromatography followed by buffer exchange into PBS and concentration via UF/DF. The efficiency of conjugation for the purified samples was determined by LC-MS (Table 2).

Compound | Efficiency of MTGase mediated conjugation, EndoS Process [%] | Efficiency of MTGase mediated conjugation, PNGase F Process [%]
[N-]=[N+]=NCCOCCOCCOCCNC(=O)c1ccc(C(=O)NN)cc1 [Compound 7, 4-hydrazidobenzamide-PEG(4u)-azide] | 100 | 
[N-]=[N+]=NCCOCCOCCOCCNC(=O)c1ccc(NN)cc1 [Compound 8, 4-hydrazinobenzamide-PEG(4u)-azide] | 84 | 91
[N-]=[N+]=NCCOCCOCCOCCNC(=O)c1ccc(CC(=O)NN)cc1 [Compound 11, 4-hydrazidomethylbenzamide-PEG(4u)-azide] | 100 | 
amine-PEG(3u)-azide [Compound 1] | 100 | 100
aminooxy-PEG(3u)-azide [Compound 2] | 84 | 95
hydrazido-PEG(4u)-azide [Compound 3] | 97 | 98
hydrazino-PEG(4u)-azide [Compound 4] | 86 | 89
